# Results as given in patent US10555987B2, “GHRH agonists for the treatment of ischemic disorders” (UNIVERSITY OF MIAMI, priority 2012, dated 2020).
# Non-standard residues stand in square brackets, D forms with d. Residues, ends and D or L forms follow the SMILES beside them. *: point of attachment. Desaminotyrosyl = O=C(CCc1ccc(O)cc1)*; NMeY = CN[C@@H](Cc1ccc(O)cc1)C(=O)O; Agmatine = N=C(N)NCCCCN*; Nle = CCCC[C@H](N)C(=O)O; Orn = NCCC[C@H](N)C(=O)O; Abu = CC[C@H](N)C(=O)O
# How the values were obtained:
# [1] = tested on: nitrosoglutathione reductase-/- (GSNOR-/-) mesenchymal stem cells (MSCs); test: Tube formation of GSNOR-/- mesenchymal stem cells in Matrigel; format: cell-based, mouse; details: GSNOR-/- MSCs on Matrigel, 6 to 24 hours
# Procedure: Bone marrow-derived MSCs isolated from wildtype and GSNOR^−/− mice were grown in endothelial growth media (EGM-2, Lonza Biotech) for a period of 1 week. Cells were harvested by brief trypsinization and plated in 24-well culture dishes (5×10^4 cells/well) pre-coated with 300 μl of Matrigel (BD Biosciences). Cells were incubated in endothelial basal media (Lonza Biotech) supplemented with 0.1% bovine serum albumin, in the presence or absence of GHRH agonist peptides P-20356 and P-27409. After 6 to 24 hours, tube formation potential was quantified in each sample by measuring the number and length of tubes formed using Image J Software (NIH).
# [2] = tested on: superfused rat pituitary cells; test: GH release in superfused rat pituitary cell system (Table 4); format: cell-based; details: 1 nM; for GH Response (ng/ml), column 1: replicate 1; for GH Response (ng/ml), column 2: replicate 2; for GH Response (ng/ml), column 3: replicate 3
# Procedure: Growth hormone releasing activity. Growth hormone releasing was assayed by using a superfused rat pituitary cell system as described in S. Vigh and A. V. Schally, Peptides 5, Suppl: 241-347, 1984. The new synthetic peptide analog of hGHRH P20356 and JI-38 (as control) were administered for 3 minutes (1 mL perfusate) at 1 nM concentration as shown below. Fractions of 1 ml are collected and the GH content in each was determined by ELISA.
# Pituitary cells from 2 male rats were used for each channel of the superfusion system. The cells were exposed to 3-min pulses of the new GHRH agonists or to JI-38 as standard every 30 min. Outflowing samples of each channel (1 ml) were collected every 3 min, and GH levels were determined by ELISA.
# GHRH receptor = molecular target: T1, GHRH receptor (Homo sapiens, UniProt Q02643); test: GHRH receptor binding, competition with 125I-labeled [His1,Nle27]hGHRH(1-32)NH2, human pituitary membrane homogenates (Table 6); set-up: Normal human pituitaries were purchased from the National Hormone and Peptide Program; tissue National Hormone and Peptide Program (A.F. Parlow, Harbor-UCLA Medical Center, Torrance, Calif.); host or cells: normal human pituitary, membrane fraction
# T1 sequence (Q02643 23-423): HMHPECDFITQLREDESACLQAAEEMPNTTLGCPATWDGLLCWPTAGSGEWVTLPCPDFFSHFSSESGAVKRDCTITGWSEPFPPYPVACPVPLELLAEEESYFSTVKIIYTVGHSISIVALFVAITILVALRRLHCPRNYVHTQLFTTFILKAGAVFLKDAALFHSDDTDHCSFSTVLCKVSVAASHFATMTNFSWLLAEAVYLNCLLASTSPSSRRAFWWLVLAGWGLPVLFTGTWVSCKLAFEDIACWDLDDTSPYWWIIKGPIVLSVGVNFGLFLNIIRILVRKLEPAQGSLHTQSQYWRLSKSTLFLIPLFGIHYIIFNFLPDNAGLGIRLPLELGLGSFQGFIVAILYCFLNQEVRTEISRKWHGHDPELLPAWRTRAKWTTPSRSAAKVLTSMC
# Description: Normal human pituitaries were purchased from the National Hormone and Peptide Program (A.F. Parlow, Los Angeles, County Harbor-UCLA Medical Center, Torrance, Calif.).
# [3] = fraction 1 (P-20356)/21 (JI-38)
# [4] = fraction 2 (P-20356)/22 (JI-38)
# [5] = fraction 3 (P-20356)/23 (JI-38)
# [6] = fraction 4 (P-20356)/24 (JI-38)
# [7] = fraction 5 (P-20356)/25 (JI-38)
Compound,Tube formation [1],"GH Response (ng/ml), Average [2, 3] [ng/mL]","GH Response (ng/ml), column 1 [2, 3] [ng/mL]","GH Response (ng/ml), column 2 [2, 3] [ng/mL]","GH Response (ng/ml), Average [2, 4] [ng/mL]","GH Response (ng/ml), column 1 [2, 4] [ng/mL]","GH Response (ng/ml), column 2 [2, 4] [ng/mL]","GH Response (ng/ml), Average [2, 5] [ng/mL]","GH Response (ng/ml), column 1 [2, 5] [ng/mL]","GH Response (ng/ml), column 2 [2, 5] [ng/mL]","GH Response (ng/ml), Average [2, 6] [ng/mL]","GH Response (ng/ml), column 1 [2, 6] [ng/mL]","GH Response (ng/ml), column 2 [2, 6] [ng/mL]","GH Response (ng/ml), Average [2, 7] [ng/mL]","GH Response (ng/ml), column 1 [2, 7] [ng/mL]","GH Response (ng/ml), column 2 [2, 7] [ng/mL]",other results
"CCCC[C@H](NC(=O)[C@@H](NC(=O)[C@H](CC(=O)O)NC(=O)[C@H](CCC(N)=O)NC(=O)[C@H](CC(C)C)NC(=O)[C@H](CC(C)C)NC(=O)[C@H](CCCN)NC(=O)[C@H](CCCNC(=N)N)NC(=O)[C@H](C)NC(=O)[C@H](CO)NC(=O)[C@H](CC(C)C)NC(=O)[C@H](CCC(N)=O)NC(=O)[C@H](CC)NC(=O)[C@H](CC(C)C)NC(=O)[C@@H](NC(=O)[C@H](CCCN)NC(=O)[C@H](CCCNC(=N)N)NC(=O)[C@H](Cc1ccc(O)cc1)NC(=O)[C@H](CO)NC(=O)[C@H](CC(N)=O)NC(=O)[C@@H](NC(=O)[C@H](Cc1ccccc1)NC(=O)[C@@H](NC(=O)[C@H](C)NC(=O)[C@H](CC(=O)O)NC(=O)[C@@H](C)NC(=O)[C@H](Cc1ccc(O)cc1)NC)[C@@H](C)CC)[C@@H](C)O)C(C)C)[C@@H](C)CC)C(=O)N[C@@H](CC(=O)O)C(=O)N[C@@H](CCCNC(=N)N)C(=O)NC [Peptide P-27409, [N—Me-Tyr^1, D-Ala^2, Orn^12, Abu^15, Orn^21, Nle^27, Asp^28]hGHRH(1-29)NH—CH3] (H-[NMeY][dA]DAIFTNSYR[Orn]VL[Abu]QLSAR[Orn]LLQDI[Nle]DR-NHMe)",formed tube-like structures similar to wildtype MSCs,,,,,,,,,,,,,,,,
"CCCC[C@H](NC(=O)[C@@H](NC(=O)[C@H](CC(=O)O)NC(=O)[C@H](CCC(N)=O)NC(=O)[C@H](CC(C)C)NC(=O)[C@H](CC(C)C)NC(=O)[C@H](CCCN)NC(=O)[C@H](CCCNC(=N)N)NC(=O)[C@H](C)NC(=O)[C@H](CO)NC(=O)[C@H](CC(C)C)NC(=O)[C@H](CCC(N)=O)NC(=O)[C@H](CC)NC(=O)[C@H](CC(C)C)NC(=O)[C@@H](NC(=O)[C@H](CCCN)NC(=O)[C@H](CCCNC(=N)N)NC(=O)[C@H](Cc1ccc(O)cc1)NC(=O)[C@H](CO)NC(=O)[C@H](CCC(N)=O)NC(=O)[C@@H](NC(=O)[C@H](Cc1ccccc1)NC(=O)[C@@H](NC(=O)[C@H](C)NC(=O)[C@H](CC(=O)O)NC(=O)[C@H](C)NC(=O)[C@H](Cc1ccc(O)cc1)NC)[C@@H](C)CC)[C@@H](C)O)C(C)C)[C@@H](C)CC)C(=O)N[C@@H](CC(=O)O)C(=O)NCCCCNC(=N)N [Peptide P-20356, [N—Me-Tyr^1, Gln^8, Orn^12, Abu^15, Orn^21, Nle^27, Asp^28, Agm^29]hGHRH(1-29) NH2] (H-[NMeY]ADAIFTQSYR[Orn]VL[Abu]QLSAR[Orn]LLQDI[Nle]D-Agmatine)",formed tube-like structures similar to wildtype MSCs,52.45,49.98,54.99,337.48,310.58,325.76,556.46,491.01,602.1,334.99,399.95,270.02,197.91,200.64,195.18,"GH-releasing potency in vitro, times more potent than JI-38 ([2]; superfused rat pituitary cells): about 3; GH Response (ng/ml), column 3 [2, 3]: 52.37 ng/mL; GH Response (ng/ml), column 3 [2, 4]: 376.11 ng/mL; GH Response (ng/ml), column 3 [2, 5]: 576.26 ng/mL"
"CCCC[C@H](NC(=O)[C@@H](NC(=O)[C@H](CC(=O)O)NC(=O)[C@H](CCC(N)=O)NC(=O)[C@H](CC(C)C)NC(=O)[C@H](CC(C)C)NC(=O)[C@H](CCCN)NC(=O)[C@H](CCCNC(=N)N)NC(=O)[C@H](C)NC(=O)[C@H](CO)NC(=O)[C@H](CC(C)C)NC(=O)[C@H](CCC(N)=O)NC(=O)[C@H](CC)NC(=O)[C@H](CC(C)C)NC(=O)[C@@H](NC(=O)[C@H](CCCN)NC(=O)[C@H](CCCNC(=N)N)NC(=O)[C@H](Cc1ccc(O)cc1)NC(=O)[C@H](CO)NC(=O)[C@H](CCC(N)=O)NC(=O)[C@@H](NC(=O)[C@H](Cc1ccccc1)NC(=O)[C@@H](NC(=O)[C@H](C)NC(=O)[C@H](CC(=O)O)NC(=O)[C@H](C)NC(=O)CCc1ccc(O)cc1)[C@@H](C)CC)[C@@H](C)O)C(C)C)[C@@H](C)CC)C(=O)N[C@@H](CC(=O)O)C(=O)NCCCCNC(=N)N [JI-38, [Dat^1, Gln^8, Orn^12,21, Abu^15, Nle^27, Asp^28, Agm^29]hGHRH(1-29)NH2, reference compound] (Desaminotyrosyl-ADAIFTQSYR[Orn]VL[Abu]QLSAR[Orn]LLQDI[Nle]D-Agmatine)",,49.27,42.46,56.07,131.71,143.58,119.83,194.68,222.13,167.23,137.45,142.96,131.93,96.70,96.34,97.05,"IC50 (GHRH receptor; 125I-[His1,Nle27]hGHRH(1-32)NH2, human pituitary membranes, Table 6): 1.95 nM; Relative affinity (Binding potency) vs GHRH (GHRH receptor; GHRH(1-29) = 1, Table 6): 3.03; Relative affinity (Binding potency) vs JI-38 (GHRH receptor; JI-38 = 1, Table 6): 1"
